Assay results taken from patent US20170119020A1, “METHOD OF FEEDING AN ANIMAL” (CARGILL, INCORPORATED, priority 2014, published 2017).
Marks after values point to notes of the source that are not given here.

What was measured:
Ross 308 breeders = experiment: Broiler breeder performance, weeks 30 through 39 of age (Example 4); assay type: in vivo, chicken; conditions: breeder diet
Source text: All breeders received the same standard control diet during the pre-experimental period (19-30 weeks of age). […] In total there were 24 floor pens with 30 breeder females and 3 males (after allocation). The experimental period lasted 9 weeks; the breeders received a lay phase diet during the entire experimental period. Feed and water were restricted. Feed amount depended on body weight development. Water was provided for two hours a day, crops were checked regularly to ensure the correct amount of water was provided. [table]

[1] = system: egg yolk of Ross 308 breeders; experiment: Egg yolk ORAC and vitamin E analysis (Example 4); assay type: in vivo, chicken
Source text: Eggs were shipped to University Gent, Belgium, for ORAC and vitamin E analysis on the yolk. The method used for the determination of polyphenols was the Folin-Ciocalteu Methodology which is described in the European Pharmacopoeia, using a spectrophotometry UV-visible. For the ORAC analysis the method was used as described by Ou et al. “Development and validation of an improved oxygen radical absorbance capacity assay using fluorescein as the fluorescent probe,” Journal of Agricultural and Food Chemistry 49: 4619-4626, (2001) and Huang et al. “High-throughput assay of oxygen radical absorbance capacity (ORAC) using a multichannel liquid handling system coupled with a microplate fluorescence reader in 96-well format,” Journal of Agricultural and Food Chemistry 50: 4437-4444, (2002).

sows and piglets = experiment: Total antioxidant status (TAS) in serum of sows and piglets (Example 10); assay type: in vivo, pig; conditions: for Total antioxidant status (TAS) in serum of piglets: piglets at 21 days
Source text: The performance following criteria were monitored during the trial: (i) Sows response criteria (actual parity, farrowing rate, culled sows—number and reasons, wean-to-mating interval, farrowing rate in the next cycle); (ii) litter response criteria (number of piglets, total, alive, stillborn, mummies; weight of piglets and litters; survival). The following biochemical (blood) criteria were monitored during the trial for the sows (mating, farrowing and weaning), piglets 21st day: (i) glutathione peroxidase (GPx) activity; (ii) superoxide dismutase (SOD) activity; (iii) total antioxidant status (TAS); (iv) vitamin E content; (v) vitamin A content.
To determine the oxidative status, the blood samples were collected from sows and piglets into tubes with lithium anticoagulant—received whole blood for analysis. At the same time blood samples were taken for blood clot. They were centrifuged (1500 rpm, 15 Temp. 4° C.) and obtained serum was pipetted into separate tubes.
In studies of oxidative status of sows and piglets were used suitable to each of the indicators, the reagent kits from Sigma-Aldrich. Determination was made in accordance with the descriptions of the rules and procedures specified by the manufacturer.
The content of the TAS (total antioxidant status) were determined using the Antioxidant assay kit (Cat. No CS0790), the activity of SOD (superoxide dismutase) was determined using SOD determination kit 19160, the activity of GPx (glutathione Peroxide assai Cellular Activity Kit) Cat. No CGP1. The content of vitamins A and E by McMurray and Blanchflower 1979 (Journal of Chromatography 178, 525-531.). TAS
Serum samples (10 ul) in duplicate were incubated at room temperature for 5 minutes with the working solution of ABTS (2,2-azino-bis (3-ethylbenzthiazoline-6-sulfonic acid) (150 pl) and the solution with myoglobin (20 pl). Simultaneously the calibration curve was performed based on serial dilutions of Trolox equivalent in the range of 0.015 to 0.42 mM (mmol).
The formed a ferryl radical from myoglobin and hydrogen peroxide causes oxidation of ABTS and production of radical cation ABTS*. The resulting chromogen has a blue-green color. In the presence of antioxidants the radical cation is suppressed to an extent dependent on the activity of the antioxidant and the color intensity is decreased proportionally. The color was measured with a spectrophotometer at a wavelength of 405 nm.

SMILES: Cc1c(C)c2c(c(C)c1O)CCC(C)(CCCC(C)CCCC(C)CCCC(C)C)O2 (racemic) [Vitamin E, DL-α-tocopherol]
- Average daily gain 30-34 wk (Ross 308 breeders; vitamin E equivalence 80 ppm): 5.36 g
- Average daily gain 30-39 wk (Ross 308 breeders; vitamin E equivalence 80 ppm): 5.79 g
- Average daily gain 34-39 wk (Ross 308 breeders; vitamin E equivalence 80 ppm): 5.96 g
- Bodyweight 30 wks (Ross 308 breeders; vitamin E equivalence 80 ppm): 3.51 kg
- Bodyweight 39 wks (Ross 308 breeders; vitamin E equivalence 80 ppm): 3.88 kg
- Egg mass 30-34 wks (Ross 308 breeders; vitamin E equivalence 80 ppm): 52.4 g/h/d
- Egg mass 30-39 wks (Ross 308 breeders; vitamin E equivalence 80 ppm): 51.6 g/h/d
- Egg mass 34-39 wks (Ross 308 breeders; vitamin E equivalence 80 ppm): 50.9 g/h/d
- Egg weight 30-34 wks (Ross 308 breeders; vitamin E equivalence 80 ppm): 60.1 g
- Egg weight 30-39 wks (Ross 308 breeders; vitamin E equivalence 80 ppm): 61.2 g
- Egg weight 34-39 wks (Ross 308 breeders; vitamin E equivalence 80 ppm): 62.4 g
- First Class Eggs 30-34 wks (Ross 308 breeders; vitamin E equivalence 80 ppm): 80.2%
- First Class Eggs 30-39 wks (Ross 308 breeders; vitamin E equivalence 80 ppm): 77.0%
- First Class Eggs 34-39 wks (Ross 308 breeders; vitamin E equivalence 80 ppm): 73.8%
- Laying in percentage 30-34 wks (Ross 308 breeders; vitamin E equivalence 80 ppm): 87.1%
- Laying in percentage 30-39 wks (Ross 308 breeders; vitamin E equivalence 80 ppm): 84.3%
- Laying in percentage 34-39 wks (Ross 308 breeders; vitamin E equivalence 80 ppm): 81.5%
- Second Choice Eggs: Broken Eggs 30-34 wks (Ross 308 breeders; vitamin E equivalence 80 ppm): 1.2%
- Second Choice Eggs: Broken Eggs 30-39 wks (Ross 308 breeders; vitamin E equivalence 80 ppm): 1.2%
- Second Choice Eggs: Broken Eggs 34-39 wks (Ross 308 breeders; vitamin E equivalence 80 ppm): 1.2%
- Second Choice Eggs: Dirty Eggs 30-34 wks (Ross 308 breeders; vitamin E equivalence 80 ppm): 1.4%
- Second Choice Eggs: Dirty Eggs 30-39 wks (Ross 308 breeders; vitamin E equivalence 80 ppm): 1.7%
- Second Choice Eggs: Dirty Eggs 34-39 wks (Ross 308 breeders; vitamin E equivalence 80 ppm): 1.9%
- Second Choice Eggs: Double yolk Eggs 30-34 wks (Ross 308 breeders; vitamin E equivalence 80 ppm): 1.3%
- Second Choice Eggs: Double yolk Eggs 30-39 wks (Ross 308 breeders; vitamin E equivalence 80 ppm): 0.9%
- Second Choice Eggs: Double yolk Eggs 34-39 wks (Ross 308 breeders; vitamin E equivalence 80 ppm): 0.4%
- Second Choice Eggs: Floor eggs, 30-34 wks (Ross 308 breeders; vitamin E equivalence 80 ppm): 2.3%
- Second Choice Eggs: Floor eggs, 30-39 wks (Ross 308 breeders; vitamin E equivalence 80 ppm): 2.8%
- Second Choice Eggs: Floor eggs, 34-39 wks (Ross 308 breeders; vitamin E equivalence 80 ppm): 3.4%
- Second Choice Eggs: Remainder 30-34 wks (Ross 308 breeders; vitamin E equivalence 80 ppm): 0.5%
- Second Choice Eggs: Remainder 30-39 wks (Ross 308 breeders; vitamin E equivalence 80 ppm): 0.6%
- Second Choice Eggs: Remainder 34-39 wks (Ross 308 breeders; vitamin E equivalence 80 ppm): 0.8%
- Second Choice Eggs: Shell less Eggs 30-34 wks (Ross 308 breeders; vitamin E equivalence 80 ppm): 0.2%
- Second Choice Eggs: Shell less Eggs 30-39 wks (Ross 308 breeders; vitamin E equivalence 80 ppm): 0.1%
- Second Choice Eggs: Shell less Eggs 34-39 wks (Ross 308 breeders; vitamin E equivalence 80 ppm): 0.0%
- Average daily gain 30-34 wk (Ross 308 breeders; vitamin E equivalence 160 ppm): 5.65 g
- Average daily gain 30-39 wk (Ross 308 breeders; vitamin E equivalence 160 ppm): 5.60 g
- Average daily gain 34-39 wk (Ross 308 breeders; vitamin E equivalence 160 ppm): 5.40 g
- Bodyweight 30 wks (Ross 308 breeders; vitamin E equivalence 160 ppm): 3.48 kg
- Bodyweight 39 wks (Ross 308 breeders; vitamin E equivalence 160 ppm): 3.83 kg
- Egg mass 30-34 wks (Ross 308 breeders; vitamin E equivalence 160 ppm): 52.5 g/h/d
- Egg mass 30-39 wks (Ross 308 breeders; vitamin E equivalence 160 ppm): 52.4 g/h/d
- Egg mass 34-39 wks (Ross 308 breeders; vitamin E equivalence 160 ppm): 52.2 g/h/d
- Egg weight 30-34 wks (Ross 308 breeders; vitamin E equivalence 160 ppm): 60.3 g
- Egg weight 30-39 wks (Ross 308 breeders; vitamin E equivalence 160 ppm): 61.6 g
- Egg weight 34-39 wks (Ross 308 breeders; vitamin E equivalence 160 ppm): 62.9 g
- First Class Eggs 30-34 wks (Ross 308 breeders; vitamin E equivalence 160 ppm): 78.6%
- First Class Eggs 30-39 wks (Ross 308 breeders; vitamin E equivalence 160 ppm): 76.5%
- First Class Eggs 34-39 wks (Ross 308 breeders; vitamin E equivalence 160 ppm): 74.4%
- Laying in percentage 30-34 wks (Ross 308 breeders; vitamin E equivalence 160 ppm): 87.0%
- Laying in percentage 30-39 wks (Ross 308 breeders; vitamin E equivalence 160 ppm): 85.0%
- Laying in percentage 34-39 wks (Ross 308 breeders; vitamin E equivalence 160 ppm): 83.0%
- Second Choice Eggs: Broken Eggs 30-34 wks (Ross 308 breeders; vitamin E equivalence 160 ppm): 1.2%
- Second Choice Eggs: Broken Eggs 30-39 wks (Ross 308 breeders; vitamin E equivalence 160 ppm): 1.3%
- Second Choice Eggs: Broken Eggs 34-39 wks (Ross 308 breeders; vitamin E equivalence 160 ppm): 1.5%
- Second Choice Eggs: Dirty Eggs 30-34 wks (Ross 308 breeders; vitamin E equivalence 160 ppm): 1.8%
- Second Choice Eggs: Dirty Eggs 30-39 wks (Ross 308 breeders; vitamin E equivalence 160 ppm): 1.8%
- Second Choice Eggs: Dirty Eggs 34-39 wks (Ross 308 breeders; vitamin E equivalence 160 ppm): 1.7%
- Second Choice Eggs: Double yolk Eggs 30-34 wks (Ross 308 breeders; vitamin E equivalence 160 ppm): 1.1%
- Second Choice Eggs: Double yolk Eggs 30-39 wks (Ross 308 breeders; vitamin E equivalence 160 ppm): 0.8%
- Second Choice Eggs: Double yolk Eggs 34-39 wks (Ross 308 breeders; vitamin E equivalence 160 ppm): 0.5%
- Second Choice Eggs: Floor eggs, 30-34 wks (Ross 308 breeders; vitamin E equivalence 160 ppm): 3.3%
- Second Choice Eggs: Floor eggs, 30-39 wks (Ross 308 breeders; vitamin E equivalence 160 ppm): 3.7%
- Second Choice Eggs: Floor eggs, 34-39 wks (Ross 308 breeders; vitamin E equivalence 160 ppm): 4.1%
- Second Choice Eggs: Remainder 30-34 wks (Ross 308 breeders; vitamin E equivalence 160 ppm): 0.8%
- Second Choice Eggs: Remainder 30-39 wks (Ross 308 breeders; vitamin E equivalence 160 ppm): 0.7%
- Second Choice Eggs: Remainder 34-39 wks (Ross 308 breeders; vitamin E equivalence 160 ppm): 0.6%
- Second Choice Eggs: Shell less Eggs 30-34 wks (Ross 308 breeders; vitamin E equivalence 160 ppm): 0.3%
- Second Choice Eggs: Shell less Eggs 30-39 wks (Ross 308 breeders; vitamin E equivalence 160 ppm): 0.2%
- Second Choice Eggs: Shell less Eggs 34-39 wks (Ross 308 breeders; vitamin E equivalence 160 ppm): 0.2%
- proportionality index for transfer of vitamin E from the diet to the egg ([1]; in vivo): around 50%
- ORAC of egg yolk ([1]; vitamin E equivalence 80 ppm): 33.8 µmol TE/g
- Vitamin E of egg yolk ([1]; vitamin E equivalence 80 ppm): 139.7 µg […]tocoferol/g
- ORAC of egg yolk ([1]; vitamin E equivalence 160 ppm): 33.5 µmol TE/g
- Vitamin E of egg yolk ([1]; vitamin E equivalence 160 ppm): 231.6 µg […]tocoferol/g
- Total antioxidant status (TAS) in serum of sows (sows and piglets; Breeding, Group 2: vitamin E 50/75 mg/kg diet): 1.26 mmol/L
- Total antioxidant status (TAS) in serum of sows (sows and piglets; Breeding, Group 3: vitamin E 100/150 mg/kg diet): 1.29 mmol/L
- Total antioxidant status (TAS) in serum of sows (sows and piglets; Farrowing, Group 2: vitamin E 50/75 mg/kg diet): 1.18^a mmol/L
- Total antioxidant status (TAS) in serum of sows (sows and piglets; Farrowing, Group 3: vitamin E 100/150 mg/kg diet): 1.19^a mmol/L
- Total antioxidant status (TAS) in serum of sows (sows and piglets; Weaning, Group 2: vitamin E 50/75 mg/kg diet): 1.18^B mmol/L
- Total antioxidant status (TAS) in serum of sows (sows and piglets; Weaning, Group 3: vitamin E 100/150 mg/kg diet): 1.20^Ba mmol/L
- Total antioxidant status (TAS) in serum of piglets (sows and piglets; Group 2: vitamin E 50/75 mg/kg sow diet): 1.16^B mmol/L
- Total antioxidant status (TAS) in serum of piglets (sows and piglets; Group 3: vitamin E 100/150 mg/kg sow diet): 1.18^A mmol/L
